“Also recorded” adds a separate entry of the source. Where two headings read alike, the source gives them in different places.
Experiments:
[1] = tested on: IL-6-induced STAT3 tyrosine phosphorylation and nuclear translocation; experiment: High content screen; type: cell-based; conditions: for SI (STAT1/STAT3), selectivity index ratio: Table 3; for selectivity against pSTAT1 / activity (STAT3): summary of Table 3
[2] = tested on: four HNSCC cell lines (CAL33, FADU, 686 LN, OSC19); experiment: Anti-proliferative activity in panel of HNSCC cell lines; type: cell-based
[3] = tested on: IFNγ-induced activation of the STAT1 pathway; experiment: HCS of IFNγ-induced STAT1 pathway activation; conditions: for inhibition at 50 µM: read-out: inhibition of IFNγ-induced STAT1 activation
[4] = tested on: panel of >80 kinases; experiment: Kinase panel; type: biochemical; conditions: data not shown
[5] = tested on: JAK2; experiment: Western blot of pJAK2/JAK2; type: cell-based; conditions: Western blot analysis
[6] = tested on: JAK1; experiment: Western blot of pJAK1/JAK1; type: cell-based; conditions: Western blot analysis
[7] = read-out: anti-proliferative activity

## CC1=CC(C)(C)N=C(Nc2nc(C)c3cc(C)ccc3n2)N1 [11b]
[1]; STAT3, text b9
  improved potency compared to the original hit 11a: 4 fold
[1]; summary b20
  potency against STAT3: low-micromolar potency
[2]; [7]
  IC50: 1 to 50 µM
[3]
  inhibition at 50 µM: < 50%

## Cc1nc(Nc2nc(=O)cc(-c3ccccc3)[nH]2)nc2cc3c(cc12)OCO3 [19q]
[1]
  SI (STAT1/STAT3), selectivity index ratio: >3

## Cc1cc(C)c2nc(Nc3nc(C)c(C)c(O)n3)nc(C)c2c1 [19b]
[1]
  SI (STAT1/STAT3), selectivity index ratio: >7
  selectivity against pSTAT1: ≥ 3 fold

## CCOc1ccc2c(C)nc(NC3=NC(C)=CC(C)(C)N3)nc2c1 [11d]
[3]
  inhibition at 50 µM: < 50%

## CC1=CC(C)(C)N=C(Nc2nc(C)c3cc(C)cc(C)c3n2)N1 [11c]
[1]; summary b20
  potency against STAT3: low-micromolar potency
[1]; versus 11a
  improvement in STAT3 inhibition: 20 fold
[2]; [7]
  IC50: 1 to 50 µM

## Cc1[nH]c(Nc2nc(C)c3cc4c(cc3n2)OCO4)nc(=O)c1C [19p]
[1]
  activity (STAT3): completely abolished activity

## CCOc1ccc2nc(Nc3nc(=O)cc(C)[nH]3)nc(C)c2c1 [19e]
[1]
  activity (STAT3): completely abolished activity

## Cc1cc2nc(Nc3nc(=O)c(C)c(C)[nH]3)nc(C)c2cc1C [19n]
[1]
  selectivity against pSTAT1: ≥ 3 fold

## CCOc1ccc2nc(NC3=NC(C)=CC(C)(C)N3)nc(C)c2c1 [11a, 6-ethoxy-4-methylquinazoline-2-amino-dihydro-trimethylpyrimidine]
[4]
  activity against a panel of >80 kinases: did not exhibit any significant activity
[5]
  effects on pJAK2/JAK2: no effects; also recorded: did not show any effects
[2]; read-out: anti-proliferative activities IC50's
  IC50: 17 to 37 µM
[3]; at 50 μM
  effect on IFNγ-induced activation of the STAT1 pathway: no effect
[3]
  inhibition at 50 µM: < 50%
[6]
  effects on pJAK1/JAK1: no effects; also recorded: did not show any effects

## CC(C)(C)c1nc2c3ccc(F)cc3c3c(=O)[nH]ccc3c2[nH]1 [compound 6, reference compound]
[1]
  potency against STAT3: nanomolar potencies
[3]
  potency against STAT1: nanomolar potencies

Source: paper PMC4250329 (Bioorganic & medicinal chemistry letters, 2014)
